From patent US12583848B2, “Isoxazole-3-carboxamide derivatives and their use for treatment of diseases caused by virus infection” (Collaborations Pharmaceuticals, Inc., priority 2019, dated 2026)

Experiments:
HeLa cells = settings: human
[1] = system: CVB3 97927-I1207T (pleconaril-resistant variant); assay type: cell-based, coxsackievirus B3
[2] = system: CVB3 97927-I1207M (pleconaril-resistant variant); assay type: cell-based, coxsackievirus B3
rhinovirus A2 (RV-A2) = experiment: organism not typed; assay type: cell-based; settings: HeLa, 72 h, read-out: IC50 against Rhinoviruses (RV) RV-A2
rhinovirus B14 (RV-B14) = experiment: organism not typed; assay type: cell-based; settings: HeLa, 72 h, read-out: IC50 against Rhinoviruses (RV) RV-B14
[3] = system: CVB3 97927-I1207K (pleconaril-resistant variant); assay type: cell-based, coxsackievirus B3
poliomyelitis virus = settings: cited from earlier work
poliovirus = settings: mouse, in vivo; cited from earlier work
[4] = system: Enterovirus D68 (EV-D68 MP30 PP); assay type: in vivo, AG129 mice; settings: guanidine 100 mg/kg/d IP, days 1 and 3 post-infection
rhinovirus B5 (RV-B5) = experiment: organism not typed; assay type: cell-based; settings: HeLa cells, CPE inhibition, 72 hours; n.a. = not active; read-out: IC50 against Rhinoviruses (RV) RV-B5
[5] = system: clinical isolates of enterovirus serotypes; settings: most of 215 clinical isolates of enterovirus serotypes; cited from earlier work
PXR = PXR (Homo sapiens, UniProt O75469); experiment: biochemical
[6] = system: coxsackievirus B3 I1207K and I1207R; settings: in vitro; cited from earlier work
in vitro = settings: human, HeLa cells

PXR, sequence (O75469 111-434 limits assumed): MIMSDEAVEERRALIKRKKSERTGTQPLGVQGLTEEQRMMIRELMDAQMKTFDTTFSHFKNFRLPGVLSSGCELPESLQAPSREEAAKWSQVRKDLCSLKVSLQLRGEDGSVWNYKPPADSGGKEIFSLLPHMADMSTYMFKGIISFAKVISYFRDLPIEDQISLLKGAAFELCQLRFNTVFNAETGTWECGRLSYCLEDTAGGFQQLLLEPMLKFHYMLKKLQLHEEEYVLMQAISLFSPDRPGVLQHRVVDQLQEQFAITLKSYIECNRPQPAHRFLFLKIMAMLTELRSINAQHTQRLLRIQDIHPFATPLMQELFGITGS

CNC(=O)c1cc(CCCOc2ccc(-c3noc(C(F)(F)F)n3)cc2C(F)(F)F)on1 [Compound 13, N-methyl-5-(3-{2-(trifluoromethyl)-4-[5-(trifluoromethyl)-1,2,4-oxadiazol-3-yl]phenoxy}propyl)isoxazole-3-carboxamide] showed a CC50 (HeLa cells) of over 100000 nM, an IC50 [1] of 1040 nM and an IC50 [2] of 60 nM. For the same molecule, the IC50 (rhinovirus A2 (RV-A2)) was 960 nM.
Cc1cc(-c2noc(C(F)(F)F)n2)cc(C)c1OCCCc1cc(C(N)=O)no1 [Compound 3, 5-(3-{2,6-dimethyl-4-[5-(trifluoromethyl)-1,2,4-oxadiazol-3-yl]phenoxy}propyl)isoxazole-3-carboxamide] showed a CC50 (HeLa cells) of over 100000 nM, an IC50 [2] of 1690 nM and an IC50 (rhinovirus A2 (RV-A2)) of 500 nM. It also gave an IC50 (rhinovirus B14 (RV-B14)) of 220 nM.
Work on COc1cc(-c2noc(C(F)(F)F)n2)cc([N+](=O)[O-])c1OCCCc1cc(C(=O)N(C)C)no1 [Compound 10, 5-(3-{2-methoxy-6-nitro-4-[5-(trifluoromethyl)-1,2,4-oxadiazol-3-yl]phenoxy}propyl)-N,N-dimethylisoxazole-3-carboxamide] yielded a CC50 (HeLa cells) of 25600 nM, an IC50 [1] of 840 nM and an IC50 [2] of 880 nM. It also gave an IC50 (rhinovirus A2 (RV-A2)) of 320 nM and an IC50 (rhinovirus B14 (RV-B14)) of 200 nM.
CN(C)C(=O)c1cc(CCCOc2ccc(-c3noc(C(F)(F)F)n3)cc2C(F)(F)F)on1 [Compound 12, N,N-dimethyl-5-(3-{2-(trifluoromethyl)-4-[5-(trifluoromethyl)-1,2,4-oxadiazol-3-yl]phenoxy}propyl)isoxazole-3-carboxamide] showed an IC50 [3] of 7180 nM, a CC50 (HeLa cells) of 19200 nM and an IC50 [1] of 530 nM. The IC50 [2] was 160 nM, the IC50 (rhinovirus A2 (RV-A2)) was 320 nM and the Mutagenicity (Escherichia coli PQ37) was “NO”. It also gave an IC50 (rhinovirus B14 (RV-B14)) of 6760 nM.
In the case of CCC(=O)C(CCCCCCOc1ccc(OC)cc1Cl)C(=O)CC [Arildone], the “replication of poliomyelitis virus in vitro” value (poliomyelitis virus) is given as “specifically inhibits replication of poliomyelitis virus in vitro” and the “poliovirus-induced paralysis and death” value (poliovirus) is given as “prevents poliovirus-induced paralysis and death in mice”.
With “Guanidine HCl [Gua- HCl, reference compound]” the IC50 [3] was 705000 nM, the IC50 [1] was 807000 nM and the “lung virus titers compared to placebo” value [4] was “reduction in virus titers”. For the same molecule, the IC50 [2] was 725000 nM.
In the case of CN(C)C(=O)c1cc(CCCOc2ccc(-c3noc(C(F)(F)F)n3)cc2F)on1 [Compound 9, 5-(3-{2-fluoro-4-[5-(trifluoromethyl)-1,2,4-oxadiazol-3-yl]phenoxy}propyl)-N,N-dimethylisoxazole-3-carboxamide], the CC50 (HeLa cells) is reported as 20200 nM, the IC50 [1] is reported as 1430 nM and the IC50 [2] is reported as 50 nM. It also gave an IC50 (rhinovirus A2 (RV-A2)) of 3770 nM, an IC50 (rhinovirus B5 (RV-B5)) of 4040 nM and an IC50 (rhinovirus B14 (RV-B14)) of 50 nM.
Molecule CNC(=O)c1cc(CCCOc2c(C)cc(-c3noc(C(F)(F)F)n3)cc2C)on1 [Compound 2, 5-(3-{2,6-dimethyl-4-[5-(trifluoromethyl)-1,2,4-oxadiazol-3-yl]phenoxy}propyl)-N-methylisoxazole-3-carboxamide] has a CC50 (HeLa cells) of over 100000 nM, an IC50 [2] of 370 nM and an IC50 (rhinovirus A2 (RV-A2)) of 210 nM. For the same molecule, the Mutagenicity (Escherichia coli PQ37) was “NO” and the IC50 (rhinovirus B14 (RV-B14)) was 20 nM.
In the case of COc1cc(-c2noc(C(F)(F)F)n2)ccc1OCCCc1cc(C(=O)N(C)C)no1 [Compound 6, 5-(3-{2-methoxy-4-[5-(trifluoromethyl)-1,2,4-oxadiazol-3-yl]phenoxy}propyl)-N,N-dimethylisoxazole-3-carboxamide], the IC50 [3] is reported as 51700 nM, the CC50 (HeLa cells) is reported as 68000 nM and the IC50 [1] is reported as 1660 nM. For the same molecule, the IC50 [2] was 600 nM, the IC50 (rhinovirus A2 (RV-A2)) was 1970 nM and the IC50 (rhinovirus B5 (RV-B5)) was 3280 nM. The IC50 (rhinovirus B14 (RV-B14)) was 40 nM.
CN(C)C(=O)c1cc(CCCOc2ccc(-c3noc(C(F)(F)F)n3)cc2)on1 [Compound 11, N,N-dimethyl-5-(3-{4-[5-(trifluoromethyl)-1,2,4-oxadiazol-3-yl]phenoxy}propyl)isoxazole-3-carboxamide] gave an IC50 [3] of 27500 nM, a CC50 (HeLa cells) of 28000 nM and an IC50 [1] of 8110 nM. The IC50 [2] was 20 nM, the IC50 (rhinovirus A2 (RV-A2)) was 4610 nM and the IC50 (rhinovirus B5 (RV-B5)) was 1740 nM. It also gave an IC50 (rhinovirus B14 (RV-B14)) of 40 nM.
Work on Cc1cc(-c2noc(C(F)(F)F)n2)cc(C)c1OCCCc1cc(C(=O)NCc2ccccc2)no1 [Compound 1, N-benzyl-5-(3-{2,6-dimethyl-4-[5-(trifluoromethyl)-1,2,4-oxadiazol-3-yl]phenoxy}propyl)isoxazole-3-carboxamide] yielded a CC50 (HeLa cells) of over 100000 nM, an IC50 [2] of 13100 nM and an IC50 (rhinovirus A2 (RV-A2)) of 230 nM. It also gave an IC50 (rhinovirus B14 (RV-B14)) of 250 nM.
Molecule CN(C)C(=O)c1cc(CCCOc2ccc(-c3noc(C(F)(F)F)n3)cc2[N+](=O)[O-])on1 [Compound 7, N,N-dimethyl-5-(3-{2-nitro-4-[5-(trifluoromethyl)-1,2,4-oxadiazol-3-yl]phenoxy}propyl)isoxazole-3-carboxamide] has an IC50 [3] of 6460 nM, a CC50 (HeLa cells) of 22500 nM and an IC50 [1] of 30 nM. The IC50 [2] was 1 nM, the IC50 (rhinovirus A2 (RV-A2)) was 670 nM and the IC50 (rhinovirus B5 (RV-B5)) was 7630 nM. The Mutagenicity (Escherichia coli PQ37) was “NO” and the IC50 (rhinovirus B14 (RV-B14)) was 280 nM.
For Cc1cc(CCCOc2c(C)cc(-c3noc(C(F)(F)F)n3)cc2C)on1 [Pleconaril, reference compound], the IC50 [5] is given as at most 30 nM, the IC50 [1] is given as 9410 nM and the IC50 (PXR) is given as over 100000 nM. The “antiviral activity against coxsackievirus B3 with I1207K or I1207R in VP1” value [6] was “completely abolish the antiviral activity”, the IC50 [2] was 4500 nM and the IC50 (rhinovirus B14 (RV-B14)) was 60 nM. For the same molecule, the CC50 (in vitro) was 45200 nM.
For Cc1cc(-c2noc(C(F)(F)F)n2)cc(C)c1OCCCc1cc(C(=O)N(C)C)no1 [Compound 4, 5-(3-{2,6-dimethyl-4-[5-(trifluoromethyl)-1,2,4-oxadiazol-3-yl]phenoxy}propyl)-N,N-dimethylisoxazole-3-carboxamide], the IC50 [3] was 8520 nM, the CC50 (HeLa cells) was 13200 nM and the IC50 [1] was 1010 nM. For the same molecule, the IC50 [2] was under 30 nM, the IC50 (rhinovirus A2 (RV-A2)) was 120 nM and the Mutagenicity (Escherichia coli PQ37) was “NO”. For the same molecule, the IC50 (rhinovirus B14 (RV-B14)) was 120 nM.
